Assay results: patent publication US12617797B2, “Substituted pyrazolo [1,5-a]pyrimidines having multimodal activity against pain” (ESTEVE PHARMACEUTICALS, S.A., priority 2020, dated 2026)

Tests used:
Human σ1 receptor = biological target: T1, Human σ1 receptor (Homo sapiens, UniProt Q99720); assay: Human σ1 receptor radioligand assay ([3H](+)-pentazocine binding, transfected HEK-293 membranes); settings: binding to σ1 receptor expressed as Ki; + also covers inhibition between 1% and 50%; read-out: σ-1 binding
T1 construct: expressed in transfected cells; host or cells: HEK-293
T1 sequence (Q99720 whole entry): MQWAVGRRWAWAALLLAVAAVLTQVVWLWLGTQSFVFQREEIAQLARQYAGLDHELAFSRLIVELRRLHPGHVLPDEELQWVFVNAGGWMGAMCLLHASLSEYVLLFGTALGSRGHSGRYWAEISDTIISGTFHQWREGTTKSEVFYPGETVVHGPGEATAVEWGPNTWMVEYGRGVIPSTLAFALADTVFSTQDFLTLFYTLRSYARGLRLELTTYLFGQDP
Method in brief: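 Ki was derived from five test concentrations, or % inhibition was measured at a single 1 or 10 μM dose, against 5 nM [3H](+)-pentazocine. Incubation was 120 min at 37° C in 50 mM Tris-HCl pH 8 with 7 μg HEK-293 membranes, and 10 μM haloperidol set non-specific binding. Bound radioactivity was counted after filtration.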

[1] = biological target: Human α2δ-1 subunit of Cav2.2 calcium channel (Homo sapiens, UniProt P54289); assay: Human α2δ-1 subunit of Cav2.2 calcium channel assay ([3H]-gabapentin binding); settings: binding to the α2δ-1 subunit of voltage-gated calcium channels expressed as Ki; + also covers inhibition between 1% and 50%
Human α2δ-1 subunit of Cav2.2 calcium channel, sequence (P54289 25-1103): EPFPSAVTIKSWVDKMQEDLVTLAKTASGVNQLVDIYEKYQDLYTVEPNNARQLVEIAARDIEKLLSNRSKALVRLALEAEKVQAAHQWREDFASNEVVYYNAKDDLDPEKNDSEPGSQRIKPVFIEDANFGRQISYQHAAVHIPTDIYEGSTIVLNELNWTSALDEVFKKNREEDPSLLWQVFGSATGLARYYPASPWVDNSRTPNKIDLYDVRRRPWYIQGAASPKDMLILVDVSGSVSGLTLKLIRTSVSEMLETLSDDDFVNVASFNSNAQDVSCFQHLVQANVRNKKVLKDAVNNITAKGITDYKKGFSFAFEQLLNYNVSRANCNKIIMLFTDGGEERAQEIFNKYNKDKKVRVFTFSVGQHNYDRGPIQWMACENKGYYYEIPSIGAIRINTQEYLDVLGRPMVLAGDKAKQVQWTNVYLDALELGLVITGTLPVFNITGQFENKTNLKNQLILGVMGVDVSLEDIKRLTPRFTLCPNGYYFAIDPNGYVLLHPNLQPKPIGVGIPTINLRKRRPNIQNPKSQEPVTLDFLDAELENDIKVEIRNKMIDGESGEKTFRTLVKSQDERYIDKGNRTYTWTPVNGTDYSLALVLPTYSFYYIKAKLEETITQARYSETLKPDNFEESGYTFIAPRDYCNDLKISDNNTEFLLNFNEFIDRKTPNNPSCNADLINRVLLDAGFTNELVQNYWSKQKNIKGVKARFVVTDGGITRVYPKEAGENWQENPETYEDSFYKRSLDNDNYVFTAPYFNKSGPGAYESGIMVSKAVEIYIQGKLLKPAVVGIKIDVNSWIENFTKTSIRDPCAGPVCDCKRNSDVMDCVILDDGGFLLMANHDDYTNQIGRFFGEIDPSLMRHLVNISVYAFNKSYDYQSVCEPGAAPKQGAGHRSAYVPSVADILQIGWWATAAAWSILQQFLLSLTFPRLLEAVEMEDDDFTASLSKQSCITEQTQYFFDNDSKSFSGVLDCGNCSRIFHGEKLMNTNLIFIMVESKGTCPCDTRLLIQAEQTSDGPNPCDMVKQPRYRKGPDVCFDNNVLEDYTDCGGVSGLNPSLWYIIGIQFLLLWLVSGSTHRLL
Method in brief: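 Displacement of 15 nM [3H]-gabapentin from human α2δ-1-enriched membranes (Hepes-KOH 10 mM, pH 7.4; 27 °C, 60 min) read by filter binding and radioactivity counting. Values are single-point % inhibition (1 or 10 μM) or five-point Ki; 10 μM pregabalin sets NSB.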

| Structure (SMILES) | Ki (Human σ1 receptor) | Ki [1] |
| --- | --- | --- |
| Cc1nn2c(C3CCCN(Cc4ccc(Cl)cc4)C3)ccnc2c1CNCCC(C)C (stereo not shown) [Example 161, N-((7-(1-(4-Chlorobenzyl)piperidin-3-yl)-2-methylpyrazolo[1,5-a]pyrimidin-3-yl)methyl)-3-methylbutan-1-amine] | < 500 nM | 500 to 5000 nM |
| Cc1nn2c(C3CCCN(Cc4ccc(Cl)cc4)C3)ccnc2c1CNCCOC(C)C (stereo not shown) [Example 162, N-((7-(1-(4-Chlorobenzyl)piperidin-3-yl)-2-methylpyrazolo[1,5-a]pyrimidin-3-yl)methyl)-2-isopropoxyethan-1-amine] | < 500 nM | 500 to 5000 nM |
| COCCCCNCc1c(C)nn2c(C3CCCN(Cc4ccc(Cl)cc4)C3)ccnc12 (stereo not shown) [Example 163, N-((7-(1-(4-Chlorobenzyl)piperidin-3-yl)-2-methylpyrazolo[1,5-a]pyrimidin-3-yl)methyl)-4-methoxybutan-1-amine] | < 500 nM | < 500 nM |
| Cc1nn2c(C3CCCN(Cc4ccc(Cl)cc4)C3)ccnc2c1CN1C[C@@H](C)O[C@@H](C)C1 (stereo partly drawn) [Example 164, (2S,6R)-4-((7-(1-(4-Chlorobenzyl)piperidin-3-yl)-2-methylpyrazolo[1,5-a]pyrimidin-3-yl)methyl)-2,6-dimethylmorpholine] | 500 to 1000 nM | 500 to 5000 nM |
| Cc1nn2c(C3CCCN(Cc4ccc(Cl)cc4)C3)ccnc2c1CN1CCOCC1 (stereo not shown) [Example 165, 4-((7-(1-(4-Chlorobenzyl)piperidin-3-yl)-2-methylpyrazolo[1,5-a]pyrimidin-3-yl)methyl)morpholine] | 500 to 1000 nM | > 5000 nM |
| Cc1nn2c(C3CCCN(Cc4ccc(Cl)cc4)C3)ccnc2c1CNCCN1CCOCC1 (stereo not shown) [Example 166, N-((7-(1-(4-Chlorobenzyl)piperidin-3-yl)-2-methylpyrazolo[1,5-a]pyrimidin-3-yl)methyl)-2-morpholinoethan-1-amine] | < 500 nM | 500 to 5000 nM |
| Cc1nn2c(C3CCCN(Cc4ccc(Cl)cc4)C3)ccnc2c1CN1CCSCC1 (stereo not shown) [Example 167, 4-((7-(1-(4-Chlorobenzyl)piperidin-3-yl)-2-methylpyrazolo[1,5-a]pyrimidin-3-yl)methyl)thiomorpholine] | < 500 nM | 500 to 5000 nM |
| Cc1nn2c(C3CCCN(Cc4ccc(Cl)cc4)C3)ccnc2c1CN1CCS(=O)(=O)CC1 (stereo not shown) [Example 168, 4-((7-(1-(4-Chlorobenzyl)piperidin-3-yl)-2-methylpyrazolo[1,5-a]pyrimidin-3-yl)methyl)thiomorpholine 1,1-dioxide] | 500 to 1000 nM | 500 to 5000 nM |
| Cc1nn2c(C3CCCN(Cc4ccc(Cl)cc4)C3)ccnc2c1CN1CCCCC1 (stereo not shown) [Example 169, 7-(1-(4-Chlorobenzyl)piperidin-3-yl)-2-methyl-3-(piperidin-1-ylmethyl)pyrazolo[1,5-a]pyrimidine] | < 500 nM | 500 to 5000 nM |
| COCC1CCN(Cc2c(C)nn3c(C4CCCN(Cc5ccc(Cl)cc5)C4)ccnc23)CC1 (stereo not shown) [Example 170, 7-(1-(4-Chlorobenzyl)piperidin-3-yl)-3-((4-(methoxymethyl)piperidin-1-yl)methyl)-2-methylpyrazolo[1,5-a]pyrimidine] | < 500 nM | < 500 nM |

More lines, now with the values ahead:

| Ki (Human σ1 receptor) | Ki [1] | Structure (SMILES) |
| --- | --- | --- |
| < 500 nM | 500 to 5000 nM | Cc1nn2c(C3CCCN(Cc4ccc(Cl)cc4)C3)ccnc2c1CN1CCC(C(N)=O)CC1 (stereo not shown) [Example 171, 1-((7-(1-(4-Chlorobenzyl)piperidin-3-yl)-2-methylpyrazolo[1,5-a]pyrimidin-3-yl)methyl)piperidine-4-carboxamide] |
| < 500 nM | > 5000 nM | Cc1nn2c(C3CCCN(Cc4ccc(Cl)cc4)C3)ccnc2c1CN1CCC(C#N)CC1 (stereo not shown) [Example 172, 1-((7-(1-(4-Chlorobenzyl)piperidin-3-yl)-2-methylpyrazolo[1,5-a]pyrimidin-3-yl)methyl)piperidine-4-carbonitrile] |
| > 1000 nM | > 5000 nM | Cc1nn2c(C3CCCN(Cc4ccc(Cl)cc4)C3)ccnc2c1CN1CCNC(=O)C1 (stereo not shown) [Example 173] |
| > 1000 nM | 500 to 5000 nM | CC(=O)N1CCN(Cc2c(C)nn3c(C4CCCN(Cc5ccc(Cl)cc5)C4)ccnc23)CC1 (stereo not shown) [Example 174, 1-(4-((7-(1-(4-Chlorobenzyl)piperidin-3-yl)-2-methylpyrazolo[1,5-a]pyrimidin-3-yl)methyl)piperazin-1-yl)ethan-1-one] |
| > 1000 nM | > 5000 nM | Cc1nn2c(C3CCCN(Cc4ccc(Cl)cc4)C3)ccnc2c1CN1CCN(S(C)(=O)=O)CC1 (stereo not shown) [Example 175, 7-(1-(4-Chlorobenzyl)piperidin-3-yl)-2-methyl-3-((4-(methylsulfonyl)piperazin-1-yl)methyl)pyrazolo[1,5-a]pyrimidine] |
| > 1000 nM | 500 to 5000 nM | Cc1nn2c(C3CCCN(Cc4ccc(Cl)cc4)C3)ccnc2c1CNCCCN1CCCC1=O (stereo not shown) [Example 176, 1-(3-(((7-(1-(4-Chlorobenzyl)piperidin-3-yl)-2-methylpyrazolo[1,5-a]pyrimidin-3-yl)methyl)amino)propyl)pyrrolidin-2-one] |
| < 500 nM | 500 to 5000 nM | Cc1nn2c(C3CCCN(Cc4ccc(Cl)cc4)C3)ccnc2c1CNCC1(F)CCOCC1 (stereo not shown) [Example 177, 1-(7-(1-(4-Chlorobenzyl)piperidin-3-yl)-2-methylpyrazolo[1,5-a]pyrimidin-3-yl)-N-((4-fluorotetrahydro-2H-pyran-4-yl)methyl)methanamine] |
| < 500 nM | 500 to 5000 nM | Cc1nn2c(C3CCCN(Cc4ccc(Cl)cc4)C3)ccnc2c1CNCCC1CCOCC1 (stereo not shown) [Example 178, N-((7-(1-(4-Chlorobenzyl)piperidin-3-yl)-2-methylpyrazolo[1,5-a]pyrimidin-3-yl)methyl)-2-(tetrahydro-2H-pyran-4-yl)ethan-1-amine] |
| 500 to 1000 nM | 500 to 5000 nM | Cc1nn2c(C3CCCN(Cc4ccc(Cl)cc4)C3)ccnc2c1CNCC1CCN(S(C)(=O)=O)CC1 (stereo not shown) [Example 179, 1-(7-(1-(4-Chlorobenzyl)piperidin-3-yl)-2-methylpyrazolo[1,5-a]pyrimidin-3-yl)-N-((1-(methylsulfonyl)piperidin-4-yl)methyl)methanamine] |
| < 500 nM | 500 to 5000 nM | CC(=O)N1CCC(CNCc2c(C)nn3c(C4CCCN(Cc5ccccc5)C4)ccnc23)CC1 (stereo not shown) [Example 180, 1-(4-((((7-(1-Benzylpiperidin-3-yl)-2-methylpyrazolo[1,5-a]pyrimidin-3-yl)methyl)amino)methyl)piperidin-1-yl)ethan-1-one] |
| < 500 nM | 500 to 5000 nM | Cc1nn2c(C3CCCN(Cc4cccc(F)c4)C3)ccnc2c1CNCC1CCOCC1 (stereo not shown) [Example 181, 1-(7-(1-(3-Fluorobenzyl)piperidin-3-yl)-2-methylpyrazolo[1,5-a]pyrimidin-3-yl)-N-((tetrahydro-2H-pyran-4-yl)methyl)methanamine] |
| < 500 nM | < 500 nM | Cc1nn2c(C3CCCN(Cc4ccc(F)c(F)c4)C3)ccnc2c1CNCC1CCOCC1 (stereo not shown) [Example 182, 1-(7-(1-(3,4-Difluorobenzyl)piperidin-3-yl)-2-methylpyrazolo[1,5-a]pyrimidin-3-yl)-N-((tetrahydro-2H-pyran-4-yl)methyl)methanamine] |
| < 500 nM | > 5000 nM | Cc1nn2c(C3CCCN(Cc4ccc(C#N)cc4)C3)ccnc2c1CNCC1CCOCC1 (stereo not shown) [Example 183, 4-((3-(2-Methyl-3-((((tetrahydro-2H-pyran-4-yl)methyl)amino)methyl)pyrazolo[1,5-a]pyrimidin-7-yl)piperidin-1-yl)methyl)benzonitrile] |
